Literature values in patent US20250152551A1, “DOCETAXEL COMPOSITIONS AND METHODS” (ZHUHAI BEIHAI BIOTECH CO., LTD., priority 2022, published 2025).

How the values were obtained:
[1] = test system: microtubule depolymerization

Solubility in water: practically insoluble in water
Structure (SMILES): CC(=O)O[C@@]12CO[C@@H]1C[C@H](O)[C@@]1(C)C(=O)[C@H](O)C3=C(C)[C@@H](OC(=O)[C@H](O)[C@@H](NC(=O)OC(C)(C)C)c4ccccc4)C[C@@](O)([C@@H](OC(=O)c4ccccc4)[C@H]21)C3(C)C [docetaxel]
Potency in inhibiting microtubule depolymerization relative to paclitaxel [1]: about twice as potent as paclitaxel
